Data: patent US20240158446A1, “CYCLIC COMPOUND HAVING SELECTIVE INHIBITORY ACTION ON KRAS OVER HRAS AND NRAS” (CHUGAI SEIYAKU KABUSHIKI KAISHA, priority 2021, published 2024)
pKd: −log10 of the molar value. Like-named read-outs stand apart in the source and are kept apart here. Where a SMILES comes first, the peptide text is derived from it. Bridges are numbered along the chain shown (N, C = ends). [ ]: non-standard residue; d: D form. The star is where a group is joined. hPhe(3,5-F2-4-CF3) = N[C@@H](CCc1cc(F)c(C(F)(F)F)c(F)c1)C(=O)O; hPhe(3-Cl-4-CF3) = N[C@@H](CCc1ccc(C(F)(F)F)c(Cl)c1)C(=O)O; NPrPhe(4-CF3) = CCCN[C@@H](Cc1ccc(C(F)(F)F)cc1)C(=O)O; NMeGly(cPent) = CN[C@H](C(=O)O)C1CCCC1; Pro(4,4-F2) = O=C(O)[C@@H]1CC(F)(F)CN1; Hyp = O=C(O)[C@@H]1C[C@@H](O)CN1; NMeD = CN[C@@H](CC(=O)O)C(=O)O; NMeL = CN[C@@H](CC(C)C)C(=O)O; Morpholide = C1CN(*)CCO1; NMeA = CN[C@@H](C)C(=O)O; Ac5c = NC1(C(=O)O)CCCC1; Aze = O=C(O)[C@@H]1CCN1; Ac4c = NC1(C(=O)O)CCC1; NEtG = CCNCC(=O)O; Sar = CNCC(=O)O

Experiments:
[1] = biological target: GDP-bound NRAS wild-type protein (Homo sapiens, UniProt P01111); experiment: Binding to NRAS by surface plasmon resonance (SPR), Single Cycle Kinetics
GDP-bound NRAS wild-type protein, sequence (P01111 whole entry): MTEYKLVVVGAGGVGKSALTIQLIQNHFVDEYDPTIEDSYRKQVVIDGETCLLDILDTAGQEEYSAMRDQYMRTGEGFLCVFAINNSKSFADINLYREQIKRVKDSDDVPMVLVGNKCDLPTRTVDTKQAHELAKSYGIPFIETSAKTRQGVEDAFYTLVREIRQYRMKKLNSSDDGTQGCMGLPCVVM

[2] = biological target: GDP-bound HRAS wild-type protein (Homo sapiens, UniProt P01112); experiment: Binding to HRAS by surface plasmon resonance (SPR), Single Cycle Kinetics
GDP-bound HRAS wild-type protein, sequence (P01112 whole entry): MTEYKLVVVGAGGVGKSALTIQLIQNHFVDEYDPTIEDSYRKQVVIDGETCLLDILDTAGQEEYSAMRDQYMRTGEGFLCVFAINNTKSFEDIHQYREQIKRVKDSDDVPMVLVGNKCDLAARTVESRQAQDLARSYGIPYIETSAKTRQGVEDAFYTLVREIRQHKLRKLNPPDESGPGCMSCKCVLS

[3] = biological target: GDP-bound KRAS wild-type protein (Homo sapiens, UniProt P01116); experiment: Binding to KRAS by surface plasmon resonance (SPR), Single Cycle Kinetics; conditions: GDP-bound KRAS wild-type protein, read-out: KRAS KD
GDP-bound KRAS wild-type protein, sequence (P01116 whole entry): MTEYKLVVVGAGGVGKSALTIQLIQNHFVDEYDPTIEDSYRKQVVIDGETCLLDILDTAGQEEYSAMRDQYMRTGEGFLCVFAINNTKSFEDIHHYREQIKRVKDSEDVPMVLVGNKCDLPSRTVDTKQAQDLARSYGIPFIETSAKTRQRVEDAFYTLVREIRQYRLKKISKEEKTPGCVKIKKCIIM

[4] = SPR, GDP-bound NRAS wild-type protein vs GDP-bound KRAS wild-type protein
[5] = SPR, GDP-bound HRAS wild-type protein vs GDP-bound KRAS wild-type protein
[6] = SPR Single Cycle Kinetics, 1:1 binding model
[7] = SPR, GDP-bound NRAS wild-type protein vs GDP-bound KRAS wild-type protein, KD ratio class
[8] = SPR, GDP-bound HRAS wild-type protein vs GDP-bound KRAS wild-type protein, KD ratio class
[9] = SPR, Single Cycle Kinetics, 1:1 binding model

SMILES | pKd [3, 6] | pKd ([3]; SPR, Single Cycle Kinetics) | NRAS/KRAS (ratio of KD value for NRAS to KD value for KRAS) [1, 4] | HRAS/KRAS (ratio of KD value for HRAS to KD value for KRAS) [2, 5] | further results
CCCN1C(=O)CN(C)C(=O)CN(C)C(=O)[C@H]([C@@H](C)CC)NC(=O)[C@H](CC(C)C)N(C)C(=O)C[C@@H](C(=O)N(C)C)N(C)C(=O)[C@H](C2CCCC2)N(C)C(=O)C2(CCCC2)NC(=O)[C@@H]2CCCN2C(=O)[C@H](CCc2cc(F)c(C(F)(F)F)c(F)c2)NC(=O)CN(C)C(=O)[C@@H]1Cc1ccc(C(F)(F)F)cc1 [PP0788] ([NMeL]I[Sar][Sar][NPrPhe(4-CF3)][Sar][hPhe(3,5-F2-4-CF3)]P[Ac5c][NMeGly(cPent)][NMeD]-NMe2; lactam N-11) | 10.27 | – | – | – | NRAS/KRAS (ratio of KD value with respect to NRAS to KD value with respect to KRAS) [1, 4]: B (a compound having 3 or more and less than 10 is denoted as B); HRAS/KRAS (ratio of KD value with respect to HRAS to KD value with respect to KRAS) [2, 5]: C (A compound having a KD ratio of 0.1 or more and less than 3 is denoted as C)
CCCN1C(=O)[C@@H]2CCN2C(=O)[C@H](C)N(C)C(=O)[C@H]([C@@H](C)CC)NC(=O)[C@H](CC(C)C)N(C)C(=O)C[C@@H](C(=O)N2CCOCC2)N(C)C(=O)[C@H](C2CCCC2)N(C)C(=O)C2(CCCC2)NC(=O)[C@@H]2C[C@@H](OCC)CN2C(=O)[C@H](CCc2ccc(C(F)(F)F)c(Cl)c2)NC(=O)CN(C)C(=O)[C@@H]1Cc1ccc(C(F)(F)F)cc1 [PP0228] ([NMeL]I[NMeA][Aze][NPrPhe(4-CF3)][Sar][hPhe(3-Cl-4-CF3)][Hyp](Et)[Ac5c][NMeGly(cPent)][NMeD]-Morpholide; lactam N-11) | 10.43 | – | C (A compound having a KD ratio of 0.1 or more and less than 3 is denoted as C) | B (a compound having 3 or more and less than 10 is denoted as B) | –
CCO[C@@H]1C[C@H]2C(=O)NC3(CCC3)C(=O)N(C)[C@@H](C3CCCC3)C(=O)N(C)[C@H](C(=O)N(C)CC)CC(=O)N(C)[C@@H](CC3CC3)C(=O)N[C@@H]([C@@H](C)CC)C(=O)N(C)CC(=O)N(C)[C@H]3C/C=C\CCN(C3=O)[C@@H](Cc3ccc(C(F)(F)F)cc3)C(=O)N(C)CC(=O)N[C@@H](CCc3cc(F)c(C(F)(F)F)c(F)c3)C(=O)N2C1 [PP1301] | – | – | – | – | NRAS/KRAS (ratio of KD value for NRAS to KD value for KRAS) [1, 7]: A (a compound having 10 or more and less than 20 is denoted as A); HRAS/KRAS (ratio of KD value for HRAS to KD value for KRAS) [2, 8]: A (a compound having 10 or more and less than 20 is denoted as A); pKd [3, 9]: 10.08
CCCN1C(=O)CN(C)C(=O)CN(CC)C(=O)[C@H]([C@@H](C)CC)NC(=O)[C@H](CC(C)C)N(C)C(=O)C[C@@H](C(=O)N2CCOCC2)NC(=O)[C@H](C2CCCC2)N(C)C(=O)C2(CCC2)NC(=O)[C@@H]2CC(F)(F)CN2C(=O)[C@H](CCc2ccc(C(F)(F)F)c(Cl)c2)NC(=O)CN(C)C(=O)[C@@H]1Cc1ccc(C(F)(F)F)cc1 [PP0334] ([NMeL]I[NEtG][Sar][NPrPhe(4-CF3)][Sar][hPhe(3-Cl-4-CF3)][Pro(4,4-F2)][Ac4c][NMeGly(cPent)]D-Morpholide; lactam N-11) | 8.33 | – | B (a compound having 3 or more and less than 10 is denoted as B) | C (A compound having a KD ratio of 0.1 or more and less than 3 is denoted as C) | –
CCO[C@@H]1C[C@H]2C(=O)NC3(CCCC3)C(=O)N(C)[C@@H](C3CCCC3)C(=O)N(C)[C@H](C(=O)N(C)CC)CC(=O)N(C)[C@@H](CC(C)C)C(=O)N[C@@H]([C@@H](C)CC)C(=O)N(C)CC(=O)N(C)[C@H]3C/C=C\CCN(C3=O)[C@@H](Cc3ccc(C(F)(F)F)cc3)C(=O)N(C)CC(=O)N[C@@H](CCc3cc(F)c(C(F)(F)F)c(F)c3)C(=O)N2C1 [PP1574, (2S,8S,12R,14S,20S,23S,27S,30S,36S,38Z)-20-cyclopentyl-8-[2-[3,5-difluoro-4-(trifluoromethyl)phenyl]ethyl]-12-ethoxy-N-ethyl-27-isobutyl-N,4,19,22,26,32,35-heptamethyl-30-[(1S)-1-methylpropyl]-3,6,9,15,18,21,25,28,31,34,42-undecaoxo-2-[[4-(trifluoromethyl)phenyl]methyl]spiro[1,4,7,10,16,19,22,26,29,32,35-undecazatricyclo[34.5.1.0^10,14]dotetracont-38-ene-17,1′-cyclopentane]-23-carboxamide] | – | – | – | – | NRAS/KRAS (ratio of KD value for NRAS to KD value for KRAS) [1, 7]: A (a compound having 10 or more and less than 20 is denoted as A); HRAS/KRAS (ratio of KD value for HRAS to KD value for KRAS) [2, 8]: A (a compound having 10 or more and less than 20 is denoted as A); pKd [3, 9]: 9.82
CCO[C@@H]1C[C@H]2C(=O)NC3(CCC3)C(=O)N(C)[C@@H](C3CCCC3)C(=O)N(C)[C@H](C(=O)N(C)C)CC(=O)N(C)[C@@H](Cc3ccc(C)cc3)C(=O)N[C@@H]([C@@H](C)CC)C(=O)N(C)CC(=O)N(C)[C@H]3CCCCCN(C3=O)[C@@H](Cc3ccc(C(F)(F)F)cc3)C(=O)N(C)CC(=O)N[C@@H](CCc3cc(F)c(C(F)(F)F)c(F)c3)C(=O)N2C1 [PP0943] | – | 8.96 | B (a compound having 3 or more and less than 10 is denoted as B) | B (a compound having 3 or more and less than 10 is denoted as B) | –
CCCN1C(=O)CN(C)C(=O)CN(CC)C(=O)[C@H]([C@@H](C)CC)NC(=O)[C@H](CC(C)C)N(C)C(=O)C[C@@H](C(=O)N2CCOCC2)N(C)C(=O)[C@H](C2CCCC2)N(C)C(=O)C2(CCC2)NC(=O)[C@@H]2CC(F)(F)CN2C(=O)[C@H](CCc2ccc(C(F)(F)F)c(Cl)c2)NC(=O)CN(C)C(=O)[C@@H]1Cc1ccc(C(F)(F)F)cc1 [PP0400] ([NMeL]I[NEtG][Sar][NPrPhe(4-CF3)][Sar][hPhe(3-Cl-4-CF3)][Pro(4,4-F2)][Ac4c][NMeGly(cPent)][NMeD]-Morpholide; lactam N-11) | 9.77 | – | B (a compound having 3 or more and less than 10 is denoted as B) | B (a compound having 3 or more and less than 10 is denoted as B) | –

Second part, led by results:

pKd [3, 6] | pKd ([3]; SPR, Single Cycle Kinetics) | SMILES | NRAS/KRAS (ratio of KD value for NRAS to KD value for KRAS) [1, 4] | HRAS/KRAS (ratio of KD value for HRAS to KD value for KRAS) [2, 5] | further results
8.49 | – | CCC[C@H]1C(=O)N[C@@H]([C@@H](C)CC)C(=O)N(C)CC(=O)N(C)[C@H]2C/C=C\CCN(C2=O)[C@@H](Cc2ccc(C)cc2)C(=O)N(C)CC(=O)N[C@@H](CCc2ccc3c(C)c(C)n(C)c3c2)C(=O)N2C[C@H](OCC)C[C@H]2C(=O)NC2(CC(C)(C)C2)C(=O)N(C)[C@@H](C2CCCC2)C(=O)N(C)[C@H](C(=O)N(C)C)CC(=O)N1C [PP2895] | – | – | NRAS/KRAS (ratio of KD value with respect to GDP-bound NRAS wild-type protein to KD value with respect to KRAS) ([1]; SPR KD ratio NRAS/KRAS, class symbols): A (a compound having 10 or more and less than 20 is denoted as A); HRAS/KRAS (ratio of KD value with respect to GDP-bound HRAS wild-type protein to KD value with respect to KRAS) ([2]; SPR KD ratio HRAS/KRAS, class symbols): A (a compound having 10 or more and less than 20 is denoted as A)
– | 10.44 | CC[C@H](C)[C@@H]1NC(=O)[C@H](C)N(C)C(=O)C[C@@H](C(=O)N(C)C)N(C)C(=O)[C@H](C2CCCC2)N(C)C(=O)C2(CCC2)NC(=O)[C@@H]2CC(F)(F)CN2C(=O)[C@H](CCc2cc(F)c(C(F)(F)F)c(F)c2)NC(=O)CN(C)C(=O)[C@H](Cc2ccc(C(F)(F)F)cc2)N2CC/C=C\C[C@@H](C2=O)N(C)C(=O)CN(C)C1=O [PP1103, (2S,8S,14S,20S,23S,27S,30S,36S,38Z)-20-cyclopentyl-8-[2-[3,5-difluoro-4-(trifluoromethyl)phenyl]ethyl]-12,12-difluoro-N,N,4,19,22,26,27,32,35-nonamethyl-30-[(1S)-1-methylpropyl]-3,6,9,15,18,21,25,28,31,34,42-undecaoxo-2-[[4-(trifluoromethyl)phenyl]methyl]spiro[1,4,7,10,16,19,22,26,29,32,35-undecazatricyclo[34.5.1.0^10,14]dotetracont-38-ene-17,1′-cyclobutane]-23-carboxamide] | A (a compound having 10 or more and less than 20 is denoted as A) | B (a compound having 3 or more and less than 10 is denoted as B) | –
– | 8.96 | CCO[C@H]1CCN2C(=O)[C@H](CCc3cc(F)c(C(F)(F)F)c(F)c3)NC(=O)CN(C)C(=O)[C@H](Cc3ccc(C(F)(F)F)cc3)N3CCCCC[C@@H](C3=O)N(C)C(=O)CN(C)C(=O)[C@H]([C@@H](C)CC)NC(=O)[C@H](CC(C)C)N(C)C(=O)C[C@@H](C(=O)N3CCOCC3)N(C)C(=O)[C@H](C3CCCC3)N(C)C(=O)C3(CCC3)NC(=O)[C@H]12 [PP1068] | A (a compound having 10 or more and less than 20 is denoted as A) | B (a compound having 3 or more and less than 10 is denoted as B) | –
– | 9.60 | CCO[C@@H]1C[C@H]2C(=O)NC3(CCC3)C(=O)N(C)[C@@H](C3CCCC3)C(=O)N(C)[C@H](C(=O)N(C)C)CC(=O)N(C)[C@@H](CC)C(=O)N[C@@H]([C@@H](C)CC)C(=O)N(CC)CC(=O)N(C)[C@H]3C/C=C\CCN(C3=O)[C@@H](Cc3ccc(C(F)(F)F)cc3)C(=O)N(C)CC(=O)N[C@@H](CCc3cc(F)c(C(F)(F)F)c(F)c3)C(=O)N2C1 [PP1052] | A (a compound having 10 or more and less than 20 is denoted as A) | A (a compound having 10 or more and less than 20 is denoted as A) | –
